Measurements: paper PMC7948503, “Optimization of a peptide ligand for the adhesion GPCR ADGRG2 provides a potent tool to explore receptor biology” (The Journal of Biological Chemistry, 2020)
Non-standard residues stand in square brackets, D forms with d. Residues, ends and D or L forms follow the SMILES beside them. *: point of attachment. FITC = O=C1OC2(c3ccc(O)cc3Oc3cc(O)ccc32)c2ccc(NC(=S)*)cc21; Phe(4-Me) = Cc1ccc(C[C@H](N)C(=O)O)cc1

Experiments:
[1] = target: T1, Rluc-ADGRG2-ΔGPS-β M839A (Mus musculus, UniProt Q8CJ12, M853A); assay: BRET binding of FITC-VPM-p15; conditions: mutant M839A
T1 construct: expressed in transfected cells; host or cells: HEK293
Description: (§1) The binding capacities of ADGRG2 WT or its mutants for VPM-p15 were determined by BRET assay, which has been used in previous studies ([27], [28], [29]). We fused the N terminus of ADGRG2 with a Rluc fragment and coupled FITC to the C terminus of VPM-p15 to facilitate BRET measurement. We stimulated the HEK293 cells transfected with Rluc-ADGRG2-ΔGPS-β wildtype (WT) or mutants by increasing the concentration of FITC-conjugated VPM-p15, and their binding abilities were determined by fitting the data with the saturation curves.
(§2) In the detection of binding capacities of ADGRG2 WT or its mutants for VPM-p15, HEK293 cells were transfected with Rluc-ADGRG2-ΔGPS-β or mutants. Transfected cells were stimulated by increasing the concentration of FITC-conjugated VPM-p15. Binding capacities were determined by BRET, EC50 values of ADGRG2 WT and its mutants for binding VPM-p15 were calculated by GraphPad, and data were normalized by EC50 of WT.

[2] = target: T2, Rluc-ADGRG2-ΔGPS-β N759A (Mus musculus, UniProt Q8CJ12, N773A); assay: BRET binding of FITC-VPM-p15; conditions: mutant N759A
T2 construct: the entire ECD (including the entire GPS motif) was removed (ADGRG2-ΔGPS-β); expressed in transfected cells; host or cells: HEK293
Description: as §1, §2

[3] = target: T3, Rluc-ADGRG2-ΔGPS-β I663A (Mus musculus, UniProt Q8CJ12, I677A); assay: BRET binding of FITC-VPM-p15; conditions: mutant I663A
T3 construct: the entire ECD (including the entire GPS motif) was removed (ADGRG2-ΔGPS-β); expressed in transfected cells; host or cells: HEK293
Description: as §1, §2

[4] = target: T4, Rluc-ADGRG2-ΔGPS-β I844A (Mus musculus, UniProt Q8CJ12, I858A); assay: BRET binding of FITC-VPM-p15; conditions: mutant I844A
T4 construct: expressed in transfected cells; host or cells: HEK293
Description: as §1, §2

[5] = target: T5, ADGRG2-ΔGPS-β V731A (Mus musculus, UniProt Q8CJ12, V745A); assay: GloSensor cAMP assay; format: cell-based; conditions: mutant V731A; HEK293, cAMP Glosensor
T5 construct: expressed in transfected cells; host or cells: HEK293
Text: (§3) Wildtype ADGRG2 full-length (ADGRG2-FL) was cloned from mouse total cDNA libraries using the following primers: forward, […]; reverse, […], and then ADGRG2-FL, ADGRG2 C-terminal truncation mutant (ADGRG2-β), and ADGRG2-ΔGPS-β (the entire ECD of ADGRG2 was deleted) were subcloned into the pcDNA3.1 expression vector. The ADGRG2-ΔGPS-β mutants (T610A, Y611A, C614A, S661A, W662A, I663A, L665A, Y666A，N667A, F671A, L679A, L683A, I730A, V731A, F741A, F747A, W757A, I758A, N759A, S760A, V762A, F764A, Y765A, V768A, V769A, F772A, V774A, W824A, F826A, F828A, F829A, V834A, V836A, F838A, M839A, I844A, F845A) were generated using a QuikChange Mutagenesis Kit (Stratagene). All mutations were verified by DNA sequencing.
(§4) The Glosensor cAMP assay was performed as described ([6], [39], [40]). HEK293 cells were transfected with the GloSensor plasmid and the desired expression plasmids in 24-well dishes. Twenty-four hours after transfection, the cells were plated on 96-well plates at a cell density of 20,000 cells/well. The cells were maintained in Dulbecco’s modified Eagle’s medium for another 24 h, washed with PBS, and then incubated with 100 μl of solution containing 10% fetal bovine serum, 2% (v/v) GloSensor cAMP reagent, and 88% CO2-independent medium in each well for 2 h. The cAMP signal was examined using a luminescence counter (Mithras LB 940).

[6] = target: T6, ADGRG2-ΔGPS-β W662A (Mus musculus, UniProt Q8CJ12, W676A); assay: GloSensor cAMP assay; format: cell-based; conditions: mutant W662A; HEK293, cAMP Glosensor
T6 construct: expressed in transfected cells; host or cells: HEK293
Text: as §3, §4

[7] = target: T7, ADGRG2-ΔGPS-β F826A (Mus musculus, UniProt Q8CJ12, F840A); assay: GloSensor cAMP assay; format: cell-based; conditions: mutant F826A; HEK293, cAMP Glosensor
T7 construct: expressed in transfected cells; host or cells: HEK293
Text: as §3, §4

[8] = target: T8, ADGRG2-ΔGPS-β L683A (Mus musculus, UniProt Q8CJ12, L697A); assay: GloSensor cAMP assay; format: cell-based; conditions: mutant L683A; HEK293, cAMP Glosensor
T8 construct: expressed in transfected cells; host or cells: HEK293
Text: as §3, §4

[9] = target: T9, ADGRG2-ΔGPS-β I663A (Mus musculus, UniProt Q8CJ12, I677A); assay: GloSensor cAMP assay; format: cell-based; conditions: mutant I663A; HEK293, cAMP Glosensor
T9 construct: expressed in transfected cells; host or cells: HEK293
Text: as §3, §4

[10] = target: T10, ADGRG2-ΔGPS-β W824A (Mus musculus, UniProt Q8CJ12, W838A); assay: GloSensor cAMP assay; format: cell-based; conditions: mutant W824A; HEK293, cAMP Glosensor
T10 construct: expressed in transfected cells; host or cells: HEK293
Text: as §3, §4

[11] = target: T11, ADGRG2-ΔGPS-β Y666A (Mus musculus, UniProt Q8CJ12, Y680A); assay: GloSensor cAMP assay; format: cell-based; conditions: mutant Y666A; HEK293, cAMP Glosensor
T11 construct: expressed in transfected cells; host or cells: HEK293
Text: as §3, §4

[12] = target: T12, ADGRG2-ΔGPS-β T610A (Mus musculus, UniProt Q8CJ12, T624A); assay: GloSensor cAMP assay; format: cell-based; conditions: mutant T610A; HEK293, cAMP Glosensor
T12 construct: expressed in transfected cells; host or cells: HEK293
Text: as §3, §4

[13] = target: T13, ADGRG2-ΔGPS-β F828A (Mus musculus, UniProt Q8CJ12, F842A); assay: GloSensor cAMP assay; format: cell-based; conditions: mutant F828A; HEK293, cAMP Glosensor
T13 construct: expressed in transfected cells; host or cells: HEK293
Text: as §3, §4

[14] = target: T14, ADGRG2-ΔGPS-β F764A (Mus musculus, UniProt Q8CJ12, F778A); assay: GloSensor cAMP assay; format: cell-based; conditions: mutant F764A; HEK293, cAMP Glosensor
T14 construct: expressed in transfected cells; host or cells: HEK293
Text: as §3, §4

[15] = target: T15, ADGRG2-ΔGPS-β I730A (Mus musculus, UniProt Q8CJ12, I744A); assay: GloSensor cAMP assay; format: cell-based; conditions: mutant I730A; HEK293, cAMP Glosensor
T15 construct: expressed in transfected cells; host or cells: HEK293
Text: as §3, §4

[16] = Kd(mutated ADGRG2-ΔGPS-β)/Kd(WT)

T2 sequence (Q8CJ12 618-1009 N773A limits assumed): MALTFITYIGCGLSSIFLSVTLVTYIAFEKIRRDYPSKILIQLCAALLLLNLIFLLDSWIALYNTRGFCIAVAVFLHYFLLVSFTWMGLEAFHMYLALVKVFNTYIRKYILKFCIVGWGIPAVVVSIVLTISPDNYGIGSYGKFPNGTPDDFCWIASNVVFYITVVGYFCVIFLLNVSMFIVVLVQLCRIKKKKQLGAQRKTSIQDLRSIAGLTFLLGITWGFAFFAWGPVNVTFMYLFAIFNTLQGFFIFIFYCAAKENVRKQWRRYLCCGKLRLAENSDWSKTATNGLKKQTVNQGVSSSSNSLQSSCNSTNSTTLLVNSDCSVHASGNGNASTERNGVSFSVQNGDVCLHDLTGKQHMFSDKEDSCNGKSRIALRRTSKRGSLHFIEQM
T4 sequence (Q8CJ12 614-1009 I858A): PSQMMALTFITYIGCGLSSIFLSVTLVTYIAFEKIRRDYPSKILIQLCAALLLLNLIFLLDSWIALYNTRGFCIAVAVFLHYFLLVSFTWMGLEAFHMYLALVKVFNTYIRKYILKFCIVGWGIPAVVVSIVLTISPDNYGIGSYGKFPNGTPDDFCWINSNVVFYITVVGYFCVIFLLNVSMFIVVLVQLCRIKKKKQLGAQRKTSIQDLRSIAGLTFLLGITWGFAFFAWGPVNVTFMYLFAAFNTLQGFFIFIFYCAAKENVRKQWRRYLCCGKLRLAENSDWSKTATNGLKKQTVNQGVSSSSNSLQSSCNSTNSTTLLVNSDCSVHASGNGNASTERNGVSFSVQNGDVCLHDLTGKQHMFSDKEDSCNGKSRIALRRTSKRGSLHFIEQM
T1 sequence (Q8CJ12 614-1009 M853A): as the sequence (Q8CJ12 614-1009 I858A) above, with M240A, A245I counted along it
T3 sequence (Q8CJ12 618-1009 I677A limits assumed): as the sequence (Q8CJ12 618-1009 N773A limits assumed) above, with I60A, A156N counted along it
T6 sequence (Q8CJ12 614-1009 W676A): as the sequence (Q8CJ12 614-1009 I858A) above, with W63A, A245I counted along it
T14 sequence (Q8CJ12 614-1009 F778A): as the sequence (Q8CJ12 614-1009 I858A) above, with F165A, A245I counted along it
T10 sequence (Q8CJ12 614-1009 W838A): as the sequence (Q8CJ12 614-1009 I858A) above, with W225A, A245I counted along it
T5 sequence (Q8CJ12 614-1009 V745A): as the sequence (Q8CJ12 614-1009 I858A) above, with V132A, A245I counted along it
T7 sequence (Q8CJ12 614-1009 F840A): as the sequence (Q8CJ12 614-1009 I858A) above, with F227A, A245I counted along it
T12 sequence (Q8CJ12 614-1009 T624A): as the sequence (Q8CJ12 614-1009 I858A) above, with T11A, A245I counted along it
T13 sequence (Q8CJ12 614-1009 F842A): as the sequence (Q8CJ12 614-1009 I858A) above, with F229A, A245I counted along it
T9 sequence (Q8CJ12 614-1009 I677A): as the sequence (Q8CJ12 614-1009 I858A) above, with I64A, A245I counted along it
T15 sequence (Q8CJ12 614-1009 I744A): as the sequence (Q8CJ12 614-1009 I858A) above, with I131A, A245I counted along it
T11 sequence (Q8CJ12 614-1009 Y680A): as the sequence (Q8CJ12 614-1009 I858A) above, with Y67A, A245I counted along it
T8 sequence (Q8CJ12 614-1009 L697A): as the sequence (Q8CJ12 614-1009 I858A) above, with L84A, A245I counted along it

EC50 [5] [µM] | EC50 [6] [µM] | EC50 [7] [µM] | EC50 [8] [µM] | EC50 [9] [µM] | EC50 [10] [µM] | EC50 [11] [µM] | EC50 [12] [µM] | EC50 [13] [µM] | EC50 [14] [µM] | EC50 [15] [µM] | SMILES | Fmut [1, 16] | Bmax ([1]; binding Bmax (BRET)) | Fmut [2, 16] | Bmax ([2]; binding Bmax (BRET)) | Fmut [3, 16] | Bmax ([3]; binding Bmax (BRET)) | Fmut [4, 16] | Bmax ([4]; binding Bmax (BRET))
 |  |  |  |  |  |  |  |  |  |  | CC[C@H](C)[C@H](NC(=O)CNC(=O)[C@H](Cc1ccc(C)cc1)NC(=O)[C@H](CO)NC(=O)[C@@H](N)C(C)C)C(=O)N[C@@H](CC(C)C)C(=O)N[C@@H](CC(C)C)C(=O)N[C@@H](CC(=O)O)C(=O)N[C@@H](CC(C)C)C(=O)N[C@@H](CO)C(=O)N[C@@H](CCCNC(=N)N)C(=O)N[C@H](C(=O)N[C@@H](CO)C(=O)N[C@@H](CC(C)C)C(=O)N1CCC[C@H]1C(=O)N[C@@H](CCCCNC(=S)Nc1ccc2c(c1)C(=O)OC21c2ccc(O)cc2Oc2cc(O)ccc21)C(=O)O)[C@@H](C)O [FITC-VPM-p15] (H-VS[Phe(4-Me)]GILLDLSRTSLPK(FITC)-OH; N-terminus and C-terminus assumed) | 0.957 | 0.764±0.008 | 1.655 | 0.713±0.011 | 0.825 | 0.814±0.043 | 1.640 | 0.729±0.093
1.22 | 1.55 | 6.6 | 1.31 | 1.2 | 9.75 | 1.13 | 1.03 | 3.88 | 0.938 | 1.33 | CC[C@H](C)[C@H](NC(=O)CNC(=O)[C@H](Cc1ccc(C)cc1)NC(=O)[C@H](CO)NC(=O)[C@@H](N)C(C)C)C(=O)N[C@@H](CC(C)C)C(=O)N[C@@H](CC(C)C)C(=O)N[C@@H](CC(=O)O)C(=O)N[C@@H](CC(C)C)C(=O)N[C@@H](CO)C(=O)N[C@@H](CCCNC(=N)N)C(=O)N[C@H](C(=O)N[C@@H](CO)C(=O)N[C@@H](CC(C)C)C(=O)N1CCC[C@H]1C(=O)O)[C@@H](C)O [VPM-p15] (H-VS[Phe(4-Me)]GILLDLSRTSLP-OH) |  |  |  |  |  |  |  | 
